Test results from patent US20260014278A1, “HYBRID PEPTIDE DENDRIMER SYSTEMS AND EXTRAHEPATIC DELIVERY” (NUNTIUS THERAPEUTICS LIMITED, priority 2022, published 2026).

test system: not listed separately; test: Dynamic light scattering: hydrodynamic size and polydispersity index (PDI) of nanoparticles; type: physicochemical; details: GSCG1,2-RHL N:P 0.6:1, DOTMA/DOPE nanoparticles coated at 2.06:1 (dendrimer to mRNA)
Procedure: (§1) The hydrodynamic size was measured using the dynamic light scattering (DLS) technique. DLS is a very sensitive, non-invasive method to measure size and size distribution of nanoparticles in a liquid. […] Analysing these intensity fluctuations allows us to calculate the velocity of the Brownian motion. The size of the nanoparticles can be determined by using the Stokes-Einstein relationship. With the latest technology, it can measure nanoparticles smaller than 1 nm.
PDI is used to estimate the average uniformity of a particle solution, The method of cumulants is a standard technique for analysing DLS data on sample polydispersity. PDI is a number calculated from a 2 parameter fit to the correlation data (the cumulants analysis). The cumulants analysis is used to evaluate the autocorrelation function generated by a DLS experiment. The calculation is defined in ISO 13321 and ISO 22412. PDI values greater than 0.7 indicate that the sample has a very broad size distribution and is not suitable for the DLS technique. The calculations for these parameters are defined in the ISO standard document 13321:1996 E and ISO 22412:2008.
as §1, with “Size, zeta potential and polydispersity index (PDI) measurement: The hydrodynamic” for “The hydrodynamic”, “scattering (DLS) technique using the Zetasizer Advance Series—Pro (Malvern Panalytical Ltd, Malvern, UK) according to the manufacturer's instructions. DLS is” for “scattering (DLS) technique. DLS is”
The data obtained with DLS measurements can also be used to calculate the PDI of particle in solution. PDI is used to estimate the average uniformity of a particle solution. The method of cumulants is a standard technique for analysing DLS data on sample polydispersity. PDI is a number calculated from a 2 parameter fit to the correlation data (the cumulants analysis). The cumulants analysis is used to evaluate the autocorrelation function generated by a DLS experiment. The calculation is defined in ISO 13321 and ISO 22412. PDI values greater than 0.7 indicate that the sample has a very broad size distribution and is not suitable for the DLS technique. The calculations for these parameters are defined in the ISO standard document 13321:1996 E and ISO 22412:2008.
To measure the size and PDI, the samples were diluted 16× in 25 mM HEPES buffer (5 μl sample+75 μl buffer). Parameters: reference material: polystyrene latex, dispersant: water, 25° C. The PDI measurements were measured in nanoparticles comprising a dendrimer:nucleic acid NP ratio of 8:1.

Substance	PDI	size [nm]
(Ac-EEEE)2KGSGGSGGSC-NH2	0.12	166

same assay, conditions: GSCG1,2-RHL N:P 0.6:1, DOTMA/DOPE nanoparticles coated at 2.72:1 (dendrimer to mRNA)

Substance	PDI	size [nm]
(Ac-EEEE)2KGSGGSGGSC-NH2	0.13	169

same assay, conditions: GSCG1,2-RHL N:P 0.6:1, DOTMA:DOPE nanoparticles; coating mol ratio 2.06 to mRNA P where coated

Substance	Pdl	Z-average diameter [nm]
(Ac-EEEE)2KGSGGSGGSACDCRGDCFCG-NH2 (Disulfide bridges: C1-C4, C2-C3)	0.20	191
(Ac-EEEE)2KGSGGSGGSC-NH2	0.16	165

same assay, conditions: Table 7, first generation dendrimers for mixed dendrimer nanoparticles

Substance	PDI
(RLR)2KRHC-NH2 [RHCG1-RLR]	0.766

same assay, conditions: peptide dendrimer, lipid and mRNA complexes; N:P 8:1, DOTMA/DOPE w/w 10:1 to mRNA

Substance	Polydispersity Index (PDI)
(RLR)8(KRLR)4(KRLR)2KRHC-NH2 [RHCG1,2,3-RLR]	0.299
(LR)8(KRL)4(KRL)2KYM-NH2 [YMG1,2-RL, 3-LR]	0.213
(R)8(KR)4(KR)2KRHC-NH2 [RHCG1,2,3-R]	0.396
(LR)8(KRL)4(KRE)2KGSC-NH2 [GSCG1-RE, 2-RL, 3-LR]	0.158
(RLR)4(KRLR)2KRHC-NH2 [RHCG1,2-RLR]	0.214
(BR)8(KRB)4(KRX)2KGSC-NH2 [GSCG1-RX, 2-RB, 3-BR]	0.403
(FR)8(KRQ)4(KRW)2KGSC-NH2 [GSCG1-RW, 2-RQ, 3-FR]	0.452
(RL)8(KRL)4(KLR)2KGSC-NH2 [GSCG1-LR, 2,3-RL]	0.417
(LR)8(KRL)4(KRL)2KRHC-NH2 [RHCG1,2-RL, 3-LR]	0.363
(lR)8(KrL)4(KRL)2KGSC-NH2 [GSCG1-Rl, 2-rL, 3-lR]	0.241
(LR)8(KRL)4(KRL)2KGSCRHCRFWRYM-NH2 [LinearG1,2-RL, 3-LR]	0.289
(MR)8(KRC)4(KRC)2KGSC-NH2 [GSCG1-RC, 2-RC, 3-MR]	0.19
(R)4(KR)2KRHC-NH2 [RHCG1,2-R]	0.252
(LR)8(KR)4(KRLRL)2KRHC-NH2 [RHCG1-RLRL, 2-R, 3-LR]	0.37
(QR)8(KRT)4(KRY)2KGSC-NH2 [GSCG1-RY, 2-RT, 3-QR]	0.178
(R)8(KRL)4(KRLR)2KRHC-NH2 [RHCG1-RLR, 2-RL, 3-R]	0.429

Substance	Polydispersity Index (PDI)
(LR)8(KRL)4(KRL)2KRYM-NH2 [RYMG1,2-RL, 3-LR]	0.257
(WR)8(KRM)4(KRF)2KGSC-NH2 [GSCG1-RF, 2-RM, 3-WR]	0.277
(LRLR)8(KLRLR)4(KLRLR)2KGSC-NH2 [GSCG1,2,3-LRLR]	0.287
(LR)8(KRL)4(KRL)2KRFW-NH2 [RFWG1,2-RL, 3-LR]	0.401
(HK)8(KKH)4(KKL)2KGSC-NH2 [GSCG1-KL, 2-KH, 3-HK]	0.126
(YR)8(KRT)4(KRQ)2KGSC-NH2 [GSCG1-RQ, 2-RT, 3-YR]	0.409
(RL)8(KLR)4(KLR)2KGSC-NH2 [GSCG1,2-LR, 3-RL]	0.242
(LR)8(KRL)4(KRL)2KA-NH2 [AG1,2-RL, 3-LR]	0.184
(LR)8(KR)4(KRLR)2KRHC-NH2 [RHCG1-RLR, 2-R, 3-LR]	0.439
(LR)2KRHC-NH2 [RHCG1-LR]	0.577
(RR)4(KLL)2KGSC-NH2 [GSCG1-LL, 2-RR]	0.087
(LR)8(DabRL)4(DabRL)2DabGSC-NH2	0.286
(LR)8(KLR)4(KLR)2KGSC-NH2 [GSCG1,2,3-LR]	0.272
(lr)8(krl)4(krl)2kgsc-NH2	0.246
(LRLR)4(KLRLR)2KGSC-NH2 [GSCG1,2-LRLR]	0.189

test system: Mouse muscle cells (C2c12); test: eGFP expression (RFU/mg) in C2c12 muscle cells, muscle-targeting dendrimers; type: cell-based; details: N:P=0.6:1, DOTMA:DOPE w/w 10:1, 24 hours post-transfection; FIG. 9
Procedure: Cell lines, transfection reagents and mRNA. C2c12 cells were maintained in DMEM medium with 10% (v/v) FCS and 1% (v/v) L-glutamine in a humidified atmosphere in 5% CO2, and 37° C. The Alexa Fluor 488 tagged mRNA, expressing an eGFP, was purchased from RiboPro. The mRNA either expressing an eGFP or firefly luciferase was purchased from Trilink. DOTMA:DOPE, 1:1 (w/w) were obtained from Invitrogen or Encapsula NanoSciences LLC.
Transfection procedure. 24 hours before transfection, C2c12 cells were seeded in 96well plates in order to reach 70% confluence. mRNA transfection complexes were formed by mixing mRNA with the dendrimers in 25 mM HEPES buffer, then with DOTMA:DOPE in 25 mM HEPES buffer at 25° C. The transfection complexes were then overlaid to the cells in full growth medium. The cells were harvested 4 hours after transfection for FACS analysis or 24 hours post transfection for reporter genes assays.
Two variants (NTX2 and NTX3) of the peptide dendrimer GSCG1,2-RL, 3-LR ((LR)8(KRL)4(KRL)2KGSC-NH2) were made which include the ASSLNIA (SEQ ID NO:1) muscle targeting peptide. Transfection of muscle cells with GSCG1,2-RL, 3-LR, NTX2 ((LR)8(KRL)4(KRL)2[…](Acp)-NH2) or NTX3 ((LR)8(KRL)4(KRL)2[…](Acp)-NH2) was performed using eGFP mRNA and transfection efficiency was assayed using either flow cytometry or the transgene expression assay. […]
Transgene expression assay: The cells were washed twice with PBS and incubated with 50 ul of 1× M-PER lysis buffer (Thermo 11874111). […] 40 ul of lysate from each well was transferred to all black 96 well plates for quantification of eGFP relative fluorescence unit (RFU), absorbance at 535 nm, using Molecular devices SpectraMax iD5.
Protein content determination: The protein content of each cell lysate was determined by mixing the lysate (25 μL) with Pierce™ BCA Protein Assay Kit (200 ul, Thermo Scientific). After 30 minutes of 37° C. incubation in at dark, absorbance was measured at 562 nm with Molecular devices SpectraMax iD5 and converted to protein concentration using a BSA standard curve. […]

Substance	increase in eGFP expression compared to GSCG1,2-RL, 3-LR
(LR)8(KRL)4(KRL)2KGSCGAASSLNIA(Acp)-NH2 [NTX2]	two-fold

same assay, conditions: N:P=0.6:1, DOTMA:DOPE w/w 10:1, 24 hours post-transfection; FIG. 10

Substance	increase in eGFP expression compared to RHCG1-RL, 2-LR
(LR)4(KRL)2KRHCGAASSLNIA-(Acp)-NH2 [NTX5]	˜two-fold

test system: not listed separately; test: Zeta potential of nanoparticles (electrophoretic light scattering); type: physicochemical; details: GSCG1,2-RHL N:P 0.6:1, DOTMA/DOPE nanoparticles coated at 2.06:1 (dendrimer to mRNA)
Excerpt: Zeta potential is a measurement of the magnitude of the electrostatic or charge repulsion/attraction between particles. This can be determined by analysing particle mobility and charge (Zeta potential) using the Electrophoretic Light Scattering (ELS) technique.
Zeta potential is a measurement of the magnitude of the electrostatic or charge repulsion/attraction between particles. This can be determined by analysing particle mobility and charge (Zeta potential) using the Electrophoretic Light Scattering (ELS) technique. […] Parameters: reference material: polystyrene latex, dispersant: water, 25° C. The measurements of the zeta potential were carried out using the Zetasizer Advance Series—Pro (Malvern Panalytical Ltd, Malvern, UK) according to the manufacturer's instructions.

Substance	zeta potential [mV]
(Ac-EEEE)2KGSGGSGGSC-NH2	~33.2

same assay, conditions: GSCG1,2-RHL N:P 0.6:1, DOTMA/DOPE nanoparticles coated at 2.72:1 (dendrimer to mRNA)

Substance	zeta potential [mV]
(Ac-EEEE)2KGSGGSGGSC-NH2	~35.4

same assay, conditions: GSCG1,2-RHL N:P 0.6:1, DOTMA:DOPE nanoparticles; coating mol ratio 2.06 to mRNA P where coated

Substance	zeta potential [mV]
(Ac-EEEE)2KGSGGSGGSACDCRGDCFCG-NH2 (Disulfide bridges: C1-C4, C2-C3)	−31.9
(Ac-EEEE)2KGSGGSGGSC-NH2	−29.3
